Measured values: US20240262844A1, “PYRIDINIUM SALTS AND METHODS OF USE” (UNIVERSITY OF WYOMING, priority 2023, published 2024)
Where a name gives a salt, the structure may show the parent alone.

Biological target: T1, NPM1 (Homo sapiens, UniProt P06748)
T1 construct: endogenous in cells; host or cells: HEK293T
Test: In-situ labeling and enrichment of NPM1 in HEK293T cells (MS-MS, Western)
Type: cell-based
Protocol: Cell culture and in-situ tryptophan probe treatment: Cell lines were cultured at 37° C. with 5% C02. Human embryonic kidney 293 cells expressing a mutant version of the SV40 large T antigen (HEKT293T cells) were grown in Dulbecco's Modified Eagle Medium (DMEM, Gibco) supplemented with 10% fetal bovine serum and 1% penicillin/streptomycin. For in-situ labeling, cells were grown to 90% confluence, washed with Dulbecco's phosphate buffered saline (DPBS), treated with 100x stocks of the tryptophan probes (the pyridinium salts) in OptiMem (GibCo) to generate final concentrations (0 μM, 1 μM, 10 μM, and 100 μM) in 1% dimethylsulfoxide (DMSO). Cells were incubated for 1 hour at 37° C. with 5% C02 followed by photo-activation at the respective wavelengths for 20 minutes at 4° C. Cells were harvested with a cell scraper, washed 3× with DPBS, and pellets were stored at −80° C. until further use. […]
In-situ tryptophan probe sample processing for peptide-level characterization: Cell pellets were lysed via sonication (QSonica) at 50% amplitude, 2 seconds ON, 3 seconds OFF, 30 seconds in 40 mM HEPES pH 7.5 (4-(2-hydroxyethyl)-1-piperazineethanesulfonic acid), 1.5 mM magnesium chloride (MgCl2), 1% Sodium dodecyl sulfate (SDS), 0.8% NP-40 (also known as nonyl phenoxypolyethoxylethanol), and 1x protease inhibitors (Thermo). Protein concentration was determined by BCA (Pierce). […]
In-situ tryptophan probe sample processing for protein-level identification: Cell pellets were lysed via sonication (QSonica) at 50% amplitude, 2 seconds ON, 3 seconds OFF, 30 seconds in 50 mM HEPES pH 7.5, 1.5 mM MgCl2, 1% SDS, 0.8% NP-40, and 1x protease inhibitors (Thermo). Protein concentration was determined by BCA (Pierce). […]

[1] = chemoproteomic profiling, HEK293T cells

T1 sequence (P06748 whole entry): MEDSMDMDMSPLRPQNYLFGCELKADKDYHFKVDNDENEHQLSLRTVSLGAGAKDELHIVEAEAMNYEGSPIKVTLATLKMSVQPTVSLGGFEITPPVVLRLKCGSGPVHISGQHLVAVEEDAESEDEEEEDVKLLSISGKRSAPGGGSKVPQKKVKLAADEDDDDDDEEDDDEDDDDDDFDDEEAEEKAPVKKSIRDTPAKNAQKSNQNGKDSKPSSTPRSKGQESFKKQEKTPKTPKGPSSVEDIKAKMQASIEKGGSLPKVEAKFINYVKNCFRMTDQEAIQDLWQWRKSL

SMILES: COc1ccc2cc(-c3cc(C)[n+](N(C)C(=O)OCCCCCCN=[N+]=[N-])c(C)c3)ccc2c1 [Pyridinium salt 2d, 1-((((6-azidohexyl)oxy)carbonyl)(methyl)amino)-4-(6-methoxynaphthalen-2-yl)-2,6-dimethylpyridin-1-ium tetrafluoroborate]
- in-situ labeled tryptophan residue [1]: Trp290
- labeling of Trp288 [1]: not labeled
- NPM1 in enriched protein mixture (Western analysis) (cultures irradiated with blue light in the presence of probe, protein-level enrichment): found to contain both proteins
